According to ChEMBL document CHEMBL1201862, “PubChem BioAssay data set” (2004):
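48-hour exposure; five concentrations; linearly interpolated endpoints. GI50 marks 50% less growth.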 Active and inactive are the calls of the source. Cut-off read from the data, not from the text of the source: active = GI50 up to about 1.1 µM and inactive = higher.

How the values were obtained:
Assay in all cases: inhibition of tumour cell growth, NCI panel, 48 h
786-0 = system: 786-0
DMS-273 = system: DMS-273
BT-549 = system: BT-549
SW-620 = system: SW-620
HT-29 = system: HT-29
SR = system: SR
MCF7 = system: MCF7
CAKI-1 = system: CAKI-1
SK-MEL-5 = system: SK-MEL-5
DLD-1 = system: DLD-1
Hs-578T = system: Hs-578T
SN12C = system: SN12C
MOLT-4 = system: MOLT-4
OVCAR-8 = system: OVCAR-8
SK-MEL-2 = system: SK-MEL-2
M14 = system: M14
SF-268 = system: SF-268
NCI/ADR-RES = system: NCI/ADR-RES
DU-145 = system: DU-145
RPMI-8226 = system: RPMI-8226
NCI-H23 = system: NCI-H23
HCT-116 = system: HCT-116
SNB-19 = system: SNB-19
SK-MEL-28 = system: SK-MEL-28
IGROV-1 = system: IGROV-1
COLO 205 = system: COLO 205
LXFL 529 = system: LXFL 529
NCI-H460 = system: NCI-H460
OVCAR-3 = system: OVCAR-3
HCC 2998 = system: HCC 2998
DMS-114 = system: DMS-114
SNB-78 = system: SNB-78
UO-31 = system: UO-31
SF-539 = system: SF-539
UACC-257 = system: UACC-257
M19-MEL = system: M19-MEL
Malme-3M = system: Malme-3M
HOP-92 = system: HOP-92
UACC-62 = system: UACC-62
NCI-H522 = system: NCI-H522
RXF 393 = system: RXF 393
KM12 = system: KM12
ACHN = system: ACHN
HOP-62 = system: HOP-62
CCRF-CEM = system: CCRF-CEM
K562 = system: K562
SF-295 = system: SF-295
SNB-75 = system: SNB-75
SK-OV-3 = system: SK-OV-3
OVCAR-4 = system: OVCAR-4
LOX IMVI = system: LOX IMVI
MDA-N = system: MDA-N
MDA-MB-435 = system: MDA-MB-435
U-251 = system: U-251
HL-60 = system: HL-60
EKVX = system: EKVX
NCI-H226 = system: NCI-H226
TK-10 = system: TK-10
A549 = system: A549
OVCAR-5 = system: OVCAR-5
T47D = system: T47D
A498 = system: A498
HCT-15 = system: HCT-15
MDA-MB-231 = system: MDA-MB-231
PC-3 = system: PC-3

With `COc1ccc2c(c1)-c1nn(CCCN(C)C)c3ccc([N+](=O)[O-])c(c13)N2` the GI50 (786-0) was 0.0991 µM (active), the GI50 (DMS-273) was 0.161 µM (active) and the GI50 (BT-549) was 1.23 µM (inactive). The GI50 (SW-620) was 0.0719 µM (active), the GI50 (HT-29) was 0.102 µM (active) and the GI50 (SR) was 0.13 µM (active). For the same compound, the GI50 (MCF7) was 0.239 µM (active), the GI50 (CAKI-1) was 0.261 µM (active) and the GI50 (SK-MEL-5) was 0.33 µM (active). For the same compound, the GI50 (DLD-1) was 0.181 µM (active), the GI50 (Hs-578T) was 0.48 µM (active) and the GI50 (SN12C) was 0.103 µM (active). For the same compound, the GI50 (MOLT-4) was 0.106 µM (active), the GI50 (OVCAR-8) was 0.121 µM (active) and the GI50 (SK-MEL-2) was 0.676 µM (active). For the same compound, the GI50 (M14) was 0.361 µM (active), the GI50 (SF-268) was 0.207 µM (active) and the GI50 (NCI/ADR-RES) was 0.124 µM (active). For the same compound, the GI50 (DU-145) was 0.254 µM (active), the GI50 (RPMI-8226) was 0.201 µM (active) and the GI50 (NCI-H23) was 0.398 µM (active). For the same compound, the GI50 (HCT-116) was 0.0787 µM (active).

With `CCN(CC)CC/N=C\c1c(O)c(O)c(C(C)C)c2cc(C)c(-c3c(C)cc4c(C(C)C)c(O)c(O)c(/C=N/CCN(CC)CC)c4c3O)c(O)c12` the GI50 (SNB-19) was 1.65 µM (inactive), the GI50 (SK-MEL-28) was 3.17 µM (inactive) and the GI50 (IGROV-1) was 2.74 µM (inactive). The GI50 (COLO 205) was 3.54 µM (inactive), the GI50 (LXFL 529) was 1.46 µM (inactive) and the GI50 (NCI-H460) was 2.32 µM (inactive). For the same compound, the GI50 (OVCAR-3) was 1.59 µM (inactive), the GI50 (HT-29) was 1.77 µM (inactive) and the GI50 (HCC 2998) was 2.11 µM (inactive). The GI50 (DMS-114) was 1.58 µM (inactive), the GI50 (SNB-78) was 0.716 µM (active) and the GI50 (UO-31) was 2.93 µM (inactive). For the same compound, the GI50 (SF-539) was 2.2 µM (inactive), the GI50 (UACC-257) was 5.53 µM (inactive) and the GI50 (M19-MEL) was 3.45 µM (inactive). The GI50 (Malme-3M) was 4.16 µM (inactive), the GI50 (HOP-92) was 2.38 µM (inactive) and the GI50 (UACC-62) was 2.55 µM (inactive). For the same compound, the GI50 (NCI-H522) was 0.959 µM (active), the GI50 (RXF 393) was 1.33 µM (inactive) and the GI50 (KM12) was 1.1 µM (active). For the same compound, the GI50 (ACHN) was 2.66 µM (inactive), the GI50 (HOP-62) was 2.65 µM (inactive) and the GI50 (MOLT-4) was 1.29 µM (inactive). The GI50 (CCRF-CEM) was 0.354 µM (active), the GI50 (SK-MEL-2) was 2.3 µM (inactive) and the GI50 (M14) was 1.83 µM (inactive). The GI50 (K562) was 1.02 µM (active), the GI50 (SF-268) was 4 µM (inactive) and the GI50 (SF-295) was 1.58 µM (inactive). The GI50 (SNB-75) was 5.31 µM (inactive), the GI50 (RPMI-8226) was 1.53 µM (inactive) and the GI50 (SK-OV-3) was 3.46 µM (inactive). For the same compound, the GI50 (NCI-H23) was 2.95 µM (inactive), the GI50 (HCT-116) was 1.82 µM (inactive) and the GI50 (OVCAR-4) was 0.959 µM (active).

In the case of `CC1=CC[C@@]2(C)[C@@H]([C@@H]1C)[C@H]1CC[C@@H]3[C@@]4(C)CC[C@H](O)C(C)(C)[C@@H]4CC[C@@]3(C)[C@]1(C)C[C@@H]2O`, the GI50 (SNB-19) is reported as 37.8 µM (inactive), the GI50 (SK-MEL-28) is reported as 6.44 µM (inactive) and the GI50 (786-0) is reported as 12.4 µM (inactive). For the same compound, the GI50 (IGROV-1) was 17.1 µM (inactive), the GI50 (COLO 205) was 15 µM (inactive) and the GI50 (LOX IMVI) was 5.53 µM (inactive). For the same compound, the GI50 (MDA-N) was 32.4 µM (inactive), the GI50 (NCI-H460) was 19.1 µM (inactive) and the GI50 (BT-549) was 29.1 µM (inactive). The GI50 (MDA-MB-435) was 20.2 µM (inactive), the GI50 (SW-620) was 33.6 µM (inactive) and the GI50 (OVCAR-3) was 18.9 µM (inactive). The GI50 (HT-29) was 11.6 µM (inactive), the GI50 (HCC 2998) was 17.7 µM (inactive) and the GI50 (U-251) was 7.94 µM (inactive). For the same compound, the GI50 (UO-31) was > 100 µM (inactive), the GI50 (SR) was 3.46 µM (inactive) and the GI50 (MCF7) was 35.2 µM (inactive). For the same compound, the GI50 (SF-539) was 27 µM (inactive), the GI50 (CAKI-1) was 37.2 µM (inactive) and the GI50 (HL-60) was 50.1 µM (inactive). For the same compound, the GI50 (SK-MEL-5) was 13.7 µM (inactive), the GI50 (UACC-257) was 17.4 µM (inactive) and the GI50 (EKVX) was 5.61 µM (inactive). The GI50 (NCI-H226) was 27.2 µM (inactive), the GI50 (Malme-3M) was 30.4 µM (inactive) and the GI50 (Hs-578T) was 37 µM (inactive). For the same compound, the GI50 (HOP-92) was 25.6 µM (inactive), the GI50 (UACC-62) was > 45.8 µM (inactive) and the GI50 (NCI-H522) was 2.52 µM (inactive). For the same compound, the GI50 (RXF 393) was 10.4 µM (inactive), the GI50 (TK-10) was > 39.5 µM (inactive) and the GI50 (A549) was 12.6 µM (inactive). The GI50 (KM12) was 23.3 µM (inactive), the GI50 (ACHN) was 9.62 µM (inactive) and the GI50 (SN12C) was 6.61 µM (inactive). For the same compound, the GI50 (HOP-62) was 13.5 µM (inactive), the GI50 (OVCAR-5) was > 50.8 µM (inactive) and the GI50 (MOLT-4) was 13.9 µM (inactive). The GI50 (T47D) was 23 µM (inactive), the GI50 (A498) was > 20.7 µM (inactive) and the GI50 (CCRF-CEM) was 5.38 µM (inactive). For the same compound, the GI50 (HCT-15) was 26.1 µM, the GI50 (OVCAR-8) was 14.1 µM (inactive) and the GI50 (SK-MEL-2) was 24.8 µM (inactive). For the same compound, the GI50 (MDA-MB-231) was 8.2 µM (inactive), the GI50 (M14) was 6.52 µM (inactive) and the GI50 (K562) was 4.2 µM (inactive). For the same compound, the GI50 (SF-268) was 9.79 µM (inactive), the GI50 (PC-3) was 18.6 µM (inactive) and the GI50 (NCI/ADR-RES) was 21.8 µM (inactive). For the same compound, the GI50 (SF-295) was 13.2 µM (inactive), the GI50 (DU-145) was 8 µM (inactive) and the GI50 (SNB-75) was 30.3 µM (inactive). The GI50 (RPMI-8226) was 9.23 µM (inactive), the GI50 (SK-OV-3) was > 44.7 µM (inactive) and the GI50 (NCI-H23) was 25.6 µM (inactive). For the same compound, the GI50 (HCT-116) was 22.2 µM (inactive) and the GI50 (OVCAR-4) was 24.3 µM (inactive).
